Tests used:
Test in all cases: In vitro antifungal activity, microbroth dilution MIC
Type in all cases: cell-based
Conditions in all cases: RPMI-1640, 35° C., 4 to 48 hours, no growth observed
[1] = test system: Candida parapsitosis A. 7330
Outline: (§1)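 Broth microdilution adapted from NCCLS M27, in RPMI-1640 with 0.165 M MOPS, pH 7.0. Yeast or mould inoculum at 2×10^3 CFU/ml was mixed 1:1 with DMSO-derived compound solutions (200 to 0.10 μg/ml before mixing) and incubated at 35 °C for 4 to 48 h. MIC was the concentration showing no growth.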

[2] = test system: Candida albicans A. 10231
Outline: as §1

[3] = test system: Cryptococcus neoformans B. 42419
Outline: as §1

[4] = test system: Candida pseudotropicalis K. 11658
Outline: as §1

[5] = test system: Candida tropicalis A. 13803
Outline: as §1

[6] = test system: Trichophyton mentagrophytes B. 32663
Outline: as §1

[7] = test system: Candida krusei K. 11655
Outline: as §1

[8] = test system: Cryptococcus neoformans IFM. 40092
Outline: as §1

[9] = test system: Candida albicans C1-2
Outline: as §1

[10] = test system: Aspergillus furnigatus B. 19119
Outline: as §1

[11] = test system: Aspergillus niger A. 16404
Outline: as §1

[12] = test system: Torulopsis glabrata B. 16205
Outline: as §1

[13] = test system: Candida albicans IFO. 1385
Outline: as §1

[14] = test system: Trichophyton mentagrophytes A. 9129
Outline: as §1

[15] = test system: Cryptococcus neoformans A. 34144
Outline: as §1

COc1ccc(C(=C(F)N2CCN(c3ccc(OCC4COC(Cn5ccnc5)(c5ccc(Cl)cc5Cl)O4)cc3)CC2)C(F)(F)F)cc1 (mixture of isomers) [Ex. 131]
Minimal inhibitory concentration(MIC), C. parapsitosis A. 7330 [1]: 3.13 µg/mL
Minimal inhibitory concentration(MIC), C. albicans A. 10231 [2]: >100 µg/mL
Minimal inhibitory concentration(MIC), Cry. neoformans B. 42419 [3]: 0.78 µg/mL
Minimal inhibitory concentration(MIC), C. pseudotropicalis K. 11658 [4]: 1.56 µg/mL
Minimal inhibitory concentration(MIC), C. tropicalis A. 13803 [5]: >100 µg/mL
Minimal inhibitory concentration(MIC), T. mentagrophytes B. 32663 [6]: 1.56 µg/mL
Minimal inhibitory concentration(MIC), C. krusei K. 11655 [7]: 1.56 µg/mL
Minimal inhibitory concentration(MIC), Cry. neoformans IFM. 40092 [8]: 0.20 µg/mL
Minimal inhibitory concentration(MIC), C. albicans C1-2 [9]: >100 µg/mL
Minimal inhibitory concentration(MIC), A furnigatus B. 19119 [10]: >100 µg/mL
Minimal inhibitory concentration(MIC), A. niger A. 16404 [11]: >100 µg/mL
Minimal inhibitory concentration(MIC), T. glabrata B. 16205 [12]: >100 µg/mL
Minimal inhibitory concentration(MIC), C. albicans IFO. 1385 [13]: 1.56 µg/mL
Minimal inhibitory concentration(MIC), T. mentagrophytes A. 9129 [14]: 6.25 µg/mL
Minimal inhibitory concentration(MIC), Cry. neoformans A. 34144 [15]: 0.39 µg/mL

FC(=C(c1ccc2c(c1)OCO2)C(F)(F)F)N1CCN(c2ccc(OCC3COC(Cn4ccnc4)(c4ccc(Cl)cc4Cl)O3)cc2)CC1 (mixture of isomers) [Ex. 132]
Minimal inhibitory concentration(MIC), C. parapsitosis A. 7330 [1]: 1.56 µg/mL
Minimal inhibitory concentration(MIC), C. albicans A. 10231 [2]: >100 µg/mL
Minimal inhibitory concentration(MIC), Cry. neoformans B. 42419 [3]: 0.78 µg/mL
Minimal inhibitory concentration(MIC), C. pseudotropicalis K. 11658 [4]: 1.56 µg/mL
Minimal inhibitory concentration(MIC), C. tropicalis A. 13803 [5]: >100 µg/mL
Minimal inhibitory concentration(MIC), T. mentagrophytes B. 32663 [6]: 1.56 µg/mL
Minimal inhibitory concentration(MIC), C. krusei K. 11655 [7]: 1.56 µg/mL
Minimal inhibitory concentration(MIC), Cry. neoformans IFM. 40092 [8]: 0.20 µg/mL
Minimal inhibitory concentration(MIC), C. albicans C1-2 [9]: >100 µg/mL
Minimal inhibitory concentration(MIC), A furnigatus B. 19119 [10]: >100 µg/mL
Minimal inhibitory concentration(MIC), A. niger A. 16404 [11]: >100 µg/mL
Minimal inhibitory concentration(MIC), T. glabrata B. 16205 [12]: >100 µg/mL
Minimal inhibitory concentration(MIC), C. albicans IFO. 1385 [13]: 1.56 µg/mL
Minimal inhibitory concentration(MIC), T. mentagrophytes A. 9129 [14]: 6.25 µg/mL
Minimal inhibitory concentration(MIC), Cry. neoformans A. 34144 [15]: 0.78 µg/mL

FC(=C(c1cccc(Cl)c1)C(F)(F)F)N1CCN(c2ccc(OCC3COC(Cn4ccnc4)(c4ccc(Cl)cc4Cl)O3)cc2)CC1 (mixture of isomers) [Ex. 133]
Minimal inhibitory concentration(MIC), C. parapsitosis A. 7330 [1]: 3.13 µg/mL
Minimal inhibitory concentration(MIC), C. albicans A. 10231 [2]: >100 µg/mL
Minimal inhibitory concentration(MIC), Cry. neoformans B. 42419 [3]: 0.39 µg/mL
Minimal inhibitory concentration(MIC), C. pseudotropicalis K. 11658 [4]: 1.56 µg/mL
Minimal inhibitory concentration(MIC), C. tropicalis A. 13803 [5]: >100 µg/mL
Minimal inhibitory concentration(MIC), T. mentagrophytes B. 32663 [6]: 1.56 µg/mL
Minimal inhibitory concentration(MIC), C. krusei K. 11655 [7]: 1.56 µg/mL
Minimal inhibitory concentration(MIC), Cry. neoformans IFM. 40092 [8]: 0.20 µg/mL
Minimal inhibitory concentration(MIC), C. albicans C1-2 [9]: >100 µg/mL
Minimal inhibitory concentration(MIC), A furnigatus B. 19119 [10]: >100 µg/mL
Minimal inhibitory concentration(MIC), A. niger A. 16404 [11]: >100 µg/mL
Minimal inhibitory concentration(MIC), T. glabrata B. 16205 [12]: >100 µg/mL
Minimal inhibitory concentration(MIC), C. albicans IFO. 1385 [13]: 3.13 µg/mL
Minimal inhibitory concentration(MIC), T. mentagrophytes A. 9129 [14]: 6.25 µg/mL
Minimal inhibitory concentration(MIC), Cry. neoformans A. 34144 [15]: 0.78 µg/mL

FC(=C(c1ccc(Cl)cc1)C(F)(F)F)N1CCN(c2ccc(OCC3COC(Cn4ccnc4)(c4ccc(Cl)cc4Cl)O3)cc2)CC1 (mixture of isomers) [Ex. 134]
Minimal inhibitory concentration(MIC), C. parapsitosis A. 7330 [1]: 3.13 µg/mL
Minimal inhibitory concentration(MIC), C. albicans A. 10231 [2]: >100 µg/mL
Minimal inhibitory concentration(MIC), Cry. neoformans B. 42419 [3]: 0.78 µg/mL
Minimal inhibitory concentration(MIC), C. pseudotropicalis K. 11658 [4]: 1.56 µg/mL
Minimal inhibitory concentration(MIC), C. tropicalis A. 13803 [5]: >100 µg/mL
Minimal inhibitory concentration(MIC), T. mentagrophytes B. 32663 [6]: 1.56 µg/mL
Minimal inhibitory concentration(MIC), C. krusei K. 11655 [7]: 1.56 µg/mL
Minimal inhibitory concentration(MIC), Cry. neoformans IFM. 40092 [8]: 0.20 µg/mL
Minimal inhibitory concentration(MIC), C. albicans C1-2 [9]: >100 µg/mL
Minimal inhibitory concentration(MIC), A furnigatus B. 19119 [10]: >100 µg/mL
Minimal inhibitory concentration(MIC), A. niger A. 16404 [11]: >100 µg/mL
Minimal inhibitory concentration(MIC), T. glabrata B. 16205 [12]: >100 µg/mL
Minimal inhibitory concentration(MIC), C. albicans IFO. 1385 [13]: 1.56 µg/mL
Minimal inhibitory concentration(MIC), T. mentagrophytes A. 9129 [14]: 6.25 µg/mL
Minimal inhibitory concentration(MIC), Cry. neoformans A. 34144 [15]: 0.39 µg/mL
